Results on six compounds are retold here after patent publication US10369131B2, “Ultrapure tetrahydrocannabinol-11-oic acids” (Corbus Pharmaceuticals, Inc., priority 2013, dated 2019).

For one series, the system named is HL-60 cells. As to the kind of experiment: PGJ synthesis in HL-60 cells (ELISA). It counts as cell-based. Here is the method: The CB2 antagonist SR144528 reduced ultrapure AJA-induced PGJ synthesis in HL60 immune system cells at low concentrations (squares). […] DMSO control (open circles). Treatments of cells was carried out in 48 well plates with 20,000 cells/500 μl RPMI/FCS media/well. Cells were incubated for 20 hrs at 37° C. and 5% CO2. Media was changed to 500 μl of serum free RPMI and TNFα (10 nM) added. […] N=4.

Series [1] deals with female CD-1 mice. Briefly: Mouse hot plate test for antinociception. As to conditions: 60 min after administration. It counts as in vivo.
For series [2], the system named is female CD-1 mice. Briefly: Ring immobility (catalepsy) test. Here is the method:
The cataleptic response was measured using the ring test described by Pertwee (Pertwee R G, The Ring Test. A Quantitative Method of Assessing the Cataleptic Effect of Cannabis in Mice, Br. J. Pharmacol. 46:753-763 (1972)). Mice were placed on a horizontal wire ring 5.5 cm in diameter attached to a 16 cm vertical rod. The hind paws and fore paws were placed at opposite sides of the ring. The ambient temperature was maintained at 30° C. and the environment was free of auditory stimuli and bright lights. The response was calculated as the fraction of time the mouse was immobile over a five (5) minute test period.
A dose response was conducted for ultrapure AJA to oral doses of 0.05 to 56 mg/kg.
(§1) Compounds were administered at a volume of […] via oral gavage.
(§2) Female CD-1 mice (20-25 g), obtained from Charles River (Raleigh, N.C.), were used for assessment in hot plate nociception, rectal temperature, and ring immobility assays. Separate mice were used for testing each dose of each compound in this battery of procedures. The mice had free access to food and water when in their home cages. All animals were kept in a temperature-controlled (20-22° C.) environment with a 12-hour light-dark cycle (lights on at 7 a.m.).
Each mouse was tested in a battery of three tests, in which cannabinoid CB1 agonists produce in vivo effects in mice (Martin et al., 1991): antinociception (hot plate assay), decreased rectal temperature and ring immobility. Prior to administration of the test compound, rectal temperature and baseline latency in the hot plate test were measured in the mice. The latter procedure involved placing the mouse on a heated surface (mouse cold/hot plate analgesia apparatus; Stoelting, Wood Dale, Ill.) at a setting of 55° C. Time until the mouse lifts or licks a paw was measured, whereupon the mouse was removed from the apparatus. […] After measurement of baseline temperature and hot plate latency, mice were administered vehicle or drug via oral gavage. […] Subsequently, the mice were placed on a 5.5 cm ring attached at a height of 16 cm to a ring stand, and the amount of time the animals remained motionless during a 5 min period was recorded. In addition, the number of times the mouse fell or jumped off the ring was recorded. If the mouse fell off the ring more than 5 times, the test was terminated.
Rectal temperature values were expressed as the difference between control temperature (before injection) and temperature following drug administration (Δ° C.). Antinociception was expressed as the percent maximum possible effect (MPE) using a 30-s maximum test latency as follows: [(test−control)/(30−control)]×100. During assessment for catalepsy, the total amount of time (in seconds) that the mouse remained motionless on the ring apparatus (except for breathing and whisker movement) was measured and was used as an indication of catalepsy-like behavior. This value was divided by 300 s and multiplied by 100 to obtain a percent immobility. If the mouse fell off the ring more than 5 times, the test was terminated and ring immobility data for the mouse were not included in analysis. Separate between-subjects ANOVAs were used to analyze each measure. Significant differences from control (vehicle) were further analyzed with Tukey post hoc tests (α=0.05) as necessary.

The test system of series [3] is female CD-1 mice. Briefly: Rectal temperature (mouse hypothermia assay). Here is the method: as §1, §2
Each mouse was tested in a battery of three tests, in which cannabinoid CB1 agonists produce in vivo effects in mice (Martin et al., 1991): antinociception (hot plate assay), decreased rectal temperature and ring immobility. Prior to administration of the test compound, rectal temperature and baseline latency in the hot plate test were measured in the mice. The latter procedure involved placing the mouse on a heated surface (mouse cold/hot plate analgesia apparatus; Stoelting, Wood Dale, Ill.) at a setting of 55° C. Time until the mouse lifts or licks a paw was measured, whereupon the mouse was removed from the apparatus. […] Subsequently, the mice were placed on a 5.5 cm ring attached at a height of 16 cm to a ring stand, and the amount of time the animals remained motionless during a 5 min period was recorded. In addition, the number of times the mouse fell or jumped off the ring was recorded. […]
Rectal temperature values were expressed as the difference between control temperature (before injection) and temperature following drug administration (Δ° C.). Antinociception was expressed as the percent maximum possible effect (MPE) using a 30-s maximum test latency as follows: [(test−control)/(30−control)]×100. During assessment for catalepsy, the total amount of time (in seconds) that the mouse remained motionless on the ring apparatus (except for breathing and whisker movement) was measured and was used as an indication of catalepsy-like behavior. […]

In a further series the target is CB1 receptor (Homo sapiens, UniProt P21554). Particulars: earlier ajulemic acid synthesis products, literature; cited from earlier work.
CB1 receptor, sequence (P21554 whole entry): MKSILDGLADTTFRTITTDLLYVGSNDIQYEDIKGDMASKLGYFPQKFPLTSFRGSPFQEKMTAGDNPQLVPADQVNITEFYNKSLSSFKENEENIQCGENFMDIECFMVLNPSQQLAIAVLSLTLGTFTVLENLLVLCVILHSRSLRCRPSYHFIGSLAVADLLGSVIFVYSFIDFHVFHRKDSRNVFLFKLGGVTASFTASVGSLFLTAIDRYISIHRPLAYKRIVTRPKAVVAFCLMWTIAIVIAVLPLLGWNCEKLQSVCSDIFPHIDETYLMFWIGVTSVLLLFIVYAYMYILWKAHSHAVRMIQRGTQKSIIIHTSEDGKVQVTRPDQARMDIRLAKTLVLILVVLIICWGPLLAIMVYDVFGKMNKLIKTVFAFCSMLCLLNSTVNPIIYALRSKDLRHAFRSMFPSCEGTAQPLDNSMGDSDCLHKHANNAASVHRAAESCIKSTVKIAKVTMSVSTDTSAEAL
The subject of series [4] is female CD-1 mice. Particulars: oral; AJA reported in U.S. Pat. No. 5,338,753; cited from earlier work.
The test system of another series is tumor growth. As to conditions: doses in the anti-inflammatory range, compared with THC; cited from earlier work.
The conditions of series [5]: rat, at peak pharmacodynamic time points; cited from earlier work.
Series [6] relates to neuropathic pain patients. Particulars: man, cited from earlier work.
Where [7] appears, read: oral 30 and 100 mg/kg (both doses), vs vehicle, p<0.05.

In the case of SR144528, in the series on HL-60 cells, the “effect of CB2 antagonist on ultrapure AJA-induced PGJ synthesis” value was “reduced”.

For `CCCCCc1cc(O)c2c(c1)OC(C)(C)[C@@H]1CCC(C)=C[C@@H]21` [Δ9-THC, reference compound], the “antinociception in the hot plate test (% MPE)” value with female CD-1 mice [1] (oral 100 mg/kg only, vs vehicle, p<0.05) is “produced significant antinociception”. Besides, the ring immobility result in the series on female CD-1 mice [2] (setting [7]) is “produced significant”. Moreover, in the series on female CD-1 mice [3] (setting [7]), the “hypothermia (rectal temperature)” value is on record as “produced significant”.

On to `CCCCCCC(C)(C)c1cc(O)c2c(c1)OC(C)(C)[C@@H]1CC=C(C(=O)O)C[C@@H]21` [HU-239], for which, on CB1 receptor, the “ratio of CB1/CB2 binding” value is recorded as 0.19. Besides, the “doses at which active in the mouse hot plate assay” value with female CD-1 mice [4] is reported as less than 0.5 mg/kg.

Consider `COc1ccc2c(c1)c(CC(=O)O)c(C)n2C(=O)c1ccc(Cl)cc1` [indomethacin, reference compound], for which the “antinociception in the hot plate test (% MPE)” value with female CD-1 mice [1] (30 mg/kg oral) is “did not significantly affect”. The ring immobility entry with female CD-1 mice [2] (30 mg/kg oral) is “did not significantly affect”. Besides, in the series on female CD-1 mice [3] (30 mg/kg oral), the rectal temperature result is “did not significantly affect”.

Consider `CCCCCCC(C)(C)c1cc(O)c2c(c1)OC(C)(C)[C@@H]1CC=C(C(=O)O)C[C@@H]21` [AJA, (6aR,10aR)-3-(1′,1′-dimethylheptyl)-Δ8-tetrahydro-cannabinol-9-carboxylic acid], for which the “inhibition of tumor growth” value with tumor growth is reported as “small but significant inhibition of tumor growth greater than that produced by THC”. Moreover, the “brain levels relative to those seen in the plasma” value in series [5] is 25-30%. In series [6] (neuropathic pain patients), the “cannabis-like psychotropic adverse events” value is given as “absence”. Moreover, the “pain scores in neuropathic pain patients” value in [6] was “reduce pain scores”.

Regarding `Cc1c(C(=O)NN2CCCCC2)nn(-c2ccc(Cl)cc2Cl)c1-c1ccc(Cl)cc1` [SR141716], in the series on HL-60 cells (antagonist 10 μM, 2 hrs), the “effect of CB1 antagonist on ultrapure AJA-induced PGJ synthesis” value is on record as “much smaller effect”.
